Type in all cases: cell-based
For assay [1], the system named is Aeromonas hydrophila. Kind of assay: MIC against Gram-negative bacteria: Aeromonas hydrophila. The note with it: 5×10^5 CFU/mL. The method, boiled down:
(§1)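 Bacteria grown in LB at 37° C with shaking to McFarland 0.5, pelleted and resuspended in fresh LB, then seeded at 5×10^5 CFU/mL per well. Purified recombinant human EGF domain proteins were two-fold serially diluted in triplicate and plates shaken at 37° C, 175 rpm. MIC is the lowest protein concentration with no bacterial growth.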

Assay [2] concerns Proteus mirabilis. Put plainly: MIC against Gram-negative bacteria: Proteus mirabilis. The settings on record: 5×10^5 CFU/mL. In a few lines: as §1
Assay [3] has as its system Moraxella catarrhalis. Put plainly: MIC against Gram-negative bacteria: Moraxella catarrhalis. The note with it: 5×10^5 CFU/mL. The method, boiled down:
as §1

For assay [4], the system named is Serratia marcescens. Put plainly: MIC against Gram-negative bacteria: Serratia marcescens. The settings on record: 5×10^5 CFU/mL. The method, boiled down: as §1
Assay [5] concerns Citrobacter diversus. Kind of assay: MIC against Gram-negative bacteria: Citrobacter diversus. The settings on record: 5×10^5 CFU/mL. The method, boiled down:
as §1

Assay [6] deals with Enterobacter cloacae. Kind of assay: MIC against Gram-negative bacteria: Enterobacter cloacae. The note with it: 5×10^5 CFU/mL. The method, boiled down: as §1
In assay [7] the test system is Pseudomonas aeruginosa. Kind of assay: MIC against Gram-negative bacteria: Pseudomonas aeruginosa. The note with it: 5×10^5 CFU/mL. In a few lines: as §1
Assay [8] relates to Proteus vulgaris. Kind of assay: MIC against Gram-negative bacteria: Proteus vulgaris. The settings on record: 5×10^5 CFU/mL. The method, boiled down:
as §1

Assay [9] deals with E. coli BL21. Put plainly: MIC against Gram-negative bacteria: E. coli BL21. The settings on record: 5×10^5 CFU/mL. In a few lines:
as §1

For assay [10], the system named is E. coli DH5α. Put plainly: Antibacterial activity: MIC and growth curve against E. coli DH5α in 96-well plate. The settings on record: minimal inhibitory concentration against E. coli DH5α; 96-well plate, 5×10^5 CFU/mL, 37° C., judged after 8 h. The method, boiled down: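 Log-phase DH5α (OD600 about 0.5, 37° C, 185 rpm in LB) was pelleted, resuspended in fresh LB and seeded at 5×10^5 CFU/mL with recombinant protein at 50, 25 and 12.5 μg/mL (two-fold series), in triplicate. Plates were shaken at 175 rpm, 37° C, and OD600 was read every 30 min. MIC was the lowest concentration with no growth.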

Assay [11] concerns Klebsiella pneumonia. Kind of assay: MIC against Gram-negative bacteria: Klebsiella pneumonia. The settings on record: 5×10^5 CFU/mL. The method, boiled down: as §1
Where [12] appears, read: A. hydrophila, 10 h cultivation at 37° C.
Setting [13] is: P. mirabilis, 10 h cultivation at 37° C.
The mark [14] stands for this setting: M. catarrhalis, 10 h cultivation at 37° C.
Where [15] appears, read: S. marcescens, 10 h cultivation at 37° C.
Setting [16] is: C. diversus, 10 h cultivation at 37° C.
Where [17] appears, read: E. cloacae, 10 h cultivation at 37° C.
Where [18] appears, read: P. aeruginosa, 10 h cultivation at 37° C.
The mark [19] stands for this setting: P. vulgaris, 10 h cultivation at 37° C.
[20] abbreviates: K. pneumonia, 10 h cultivation at 37° C.
The mark [21] stands for this setting: 10 h cultivation at 37° C., two-fold serial dilution.

By MIC is commonly meant the least concentration at which growth counts as inhibited. Low readings indicate greater potency, high ones weaker potency.

“PRT248 (DVDECSARRGGCPQRCVNTAGSYWCQCWEGHSLSADGTLCV; listed as Homo sapiens)”: the “MIC (μg/mL) A. hydrophila” value in [1] (setting [12]) came out at 25 µg/mL. Also, the “MIC (μg/mL) P. mirabilis” value in assay [2] (setting [13]) was found to be 12.5 µg/mL. Further, the “MIC (μg/mL) M. catarrhalis” value in assay [3] (setting [14]) came out at 25 µg/mL. The “MIC (μg/mL) S. marcescens” value in assay [4] (setting [15]) is 12.5 µg/mL. The “MIC (μg/mL) C. diversus” value in [5] (setting [16]) came out at 12.5 µg/mL. The “MIC (μg/mL) E. cloacae” value in assay [6] (setting [17]) worked out at 12.5 µg/mL. For the same substance, in assay [7] (setting [18]), the “MIC (μg/mL) P. aeruginosa” value is 12.5 µg/mL. In assay [8] (setting [19]), the “MIC (μg/mL) P. vulgaris” value was 25 µg/mL. The “MIC (μg/mL) E. coli BL21” value in assay [9] (10 h cultivation at 37° C.) worked out at 25 µg/mL. The same substance returned an MIC in [10] of 12.5 µg/mL. The “MIC (μg/mL) K. pneumonia” value in assay [11] (setting [20]) was 25 µg/mL.
With “PRT221 (YTECTDGYEWDPDSQHCRDVNECLTIPEACKGEMKCINHYGGYLCL; listed as Homo sapiens)”, the “MIC (μg/mL) A. hydrophila” value in assay [1] (setting [12]) worked out at 50 µg/mL. Besides, the “MIC (μg/mL) P. mirabilis” value in [2] (setting [13]) was 25 µg/mL. Also, the “MIC (μg/mL) M. catarrhalis” value in assay [3] (setting [14]) stood at 12.5 µg/mL. Besides, the “MIC (μg/mL) S. marcescens” value in assay [4] (setting [15]) stood at 12.5 µg/mL. In addition, in assay [5] (setting [16]), the “MIC (μg/mL) C. diversus” value was found to be 25 µg/mL. Moreover, in assay [6] (setting [17]), the “MIC (μg/mL) E. cloacae” value was 25 µg/mL. In addition, the “MIC (μg/mL) P. aeruginosa” value in assay [7] (setting [18]) worked out at 50 µg/mL. For the same substance, the “MIC (μg/mL) P. vulgaris” value in assay [8] (setting [19]) is 50 µg/mL. Further, the “MIC (μg/mL) E. coli BL21” value in assay [9] (10 h cultivation at 37° C.) stood at 50 µg/mL. In addition, the minimum inhibitory concentration (MIC) in assay [10] was 12.5 µg/mL. Besides, the “MIC (μg/mL) K. pneumonia” value in [11] (setting [20]) is 12.5 µg/mL.
Consider “PRT70 (VDDPCTSSPCPPNSRCHDAWEDYSCVCDKGYLGINC; listed as Homo sapiens)”, for which the “MIC (μg/mL) A. hydrophila” value in [1] (Aeromonas hydrophila, 96-well plate, 37° C., 10 h) was 25 µg/mL. In assay [2] (Proteus mirabilis, 96-well plate, 37° C., 10 h), the “MIC (μg/mL) P. mirabilis” value came out at 50 µg/mL. Further, the “MIC (μg/mL) M. catarrhalis” value in assay [3] (Moraxella catarrhalis, 96-well plate, 37° C., 10 h) was 12.5 µg/mL. Also, the “MIC (μg/mL) S. marcescens” value in assay [4] (Serratia marcescens, 96-well plate, 37° C., 10 h) turned out to be 25 µg/mL. For the same substance, the “MIC (μg/mL) C. diversus” value in assay [5] (Citrobacter diversus, 96-well plate, 37° C., 10 h) turned out to be 12.5 µg/mL. Besides, in assay [6] (Enterobacter cloacae, 96-well plate, 37° C., 10 h), the “MIC (μg/mL) E. cloacae” value was 12.5 µg/mL. Besides, in [7] (Pseudomonas aeruginosa, 96-well plate, 37° C., 10 h), the “MIC (μg/mL) P. aeruginosa” value is 12.5 µg/mL. Besides, the “MIC (μg/mL) P. vulgaris” value in assay [8] (Proteus vulgaris, 96-well plate, 37° C., 10 h) worked out at 12.5 µg/mL. In addition, the “MIC (μg/mL) E. coli BL21” value in assay [9] (96-well plate, 37° C., 10 h) turned out to be 12.5 µg/mL. For the same substance, in assay [10], the MIC came to 12.5 µg/mL. In addition, the “MIC (μg/mL) K. pneumonia” value in [11] (Klebsiella pneumonia, 96-well plate, 37° C., 10 h) was found to be 25 µg/mL.
Turning to “PRT1051 (EQKLCKLRKGNCSSTVCGQDLQSHLCMCAEGYALSRDRKYCE; listed as Homo sapiens)”, in assay [1] (setting [21]), the “MIC A. hydrophila” value came to 12.5 µg/mL. Further, in assay [2] (setting [21]), the “MIC P. mirabilis” value came to 50 µg/mL. Further, in [3] (setting [21]), the “MIC M. catarrhalis” value came out at 12.5 µg/mL. In addition, the “MIC S. marcescens” value in assay [4] (setting [21]) turned out to be 50 µg/mL. The “MIC C. diversus” value in [5] (setting [21]) was determined as 12.5 µg/mL. Further, the “MIC E. cloacae” value in assay [6] (setting [21]) is 25 µg/mL. In assay [7] (setting [21]), the “MIC P. aeruginosa” value is 25 µg/mL. Besides, the “MIC P. vulgaris” value in assay [8] (setting [21]) turned out to be 12.5 µg/mL. Further, the “MIC E. coli BL21” value in assay [9] (setting [21]) was 12.5 µg/mL. In [10], this substance yielded an MIC of 50 µg/mL. The “MIC K. pneumonia” value in assay [11] (setting [21]) amounted to 12.5 µg/mL.
In the case of “PRT874 (CNCNQIGSVHDRCNETGFCECREGAAGPKCDDCLPTHYWRQGCYP; listed as Homo sapiens)”, the “MIC (μg/mL) A. hydrophila” value in [1] (setting [12]) was determined as 12.5 µg/mL. Moreover, the “MIC (μg/mL) P. mirabilis” value in assay [2] (setting [13]) was 12.5 µg/mL. Besides, the “MIC (μg/mL) M. catarrhalis” value in assay [3] (setting [14]) is 25 µg/mL. For the same substance, in assay [4] (setting [15]), the “MIC (μg/mL) S. marcescens” value turned out to be 12.5 µg/mL. The “MIC (μg/mL) C. diversus” value in assay [5] (setting [16]) was found to be 12.5 µg/mL. Besides, the “MIC (μg/mL) E. cloacae” value in [6] (setting [17]) stood at 12.5 µg/mL. For the same substance, in assay [7] (setting [18]), the “MIC (μg/mL) P. aeruginosa” value worked out at 12.5 µg/mL. In assay [8] (setting [19]), the “MIC (μg/mL) P. vulgaris” value amounted to 12.5 µg/mL. The “MIC (μg/mL) E. coli BL21” value in assay [9] (10 h cultivation at 37° C.) was determined as 25 µg/mL. In assay [10], this substance showed a minimal inhibitory concentration (MIC) of 12.5 µg/mL. Also, the “MIC (μg/mL) K. pneumonia” value in assay [11] (setting [20]) is 12.5 µg/mL.

These data come from patent US9833497B2, “Human originated EGF domain proteins and use of the same” (CHENGDU SOURCEBIO LIMITED-LIABILITY COMPANY, priority 2013, dated 2017).
